Measurements from patent US9029387B2, “Benzonaphthyridinamines as autotaxin inhibitors” (Merck Patent GmbH, priority 2010, dated 2015).

Molecular target: T1, recombinant autotaxin (Homo sapiens, UniProt Q13822)
T1 construct: made in house; host or cells: Hi5 insect cells (baculovirus)
Assay: Autotaxin test (enzyme test), Amplex Red fluorescence
Type: biochemical
Settings: LPC 75 μM; for IC50: IC50 ranges, read-out: Autotaxin inhibition IC50; for % (ctrl 3E−5M): at 3E−5M
Protocol: The autotaxin activity is measured indirectly using Amplex Red reagent. Amplex Red is measured here as fluorogenic indicator for the H2O2 formed. In detail, autotaxin converts the substrate lysophosphatidylcholine (LPC) into phosphocholine and lysophosphatidylic acid (LPA). After this reaction, the phosphocholine is reacted with alkaline phosphatase to give inorganic phosphate and choline. In the next step, choline is oxidised by choline oxidase to give betaine, with formation of H2O2. H2O2 reacts with Amplex Red reagent in the presence of peroxidase (horseradish peroxidase) in a 1:1 stoichiometry and forms the highly fluorescent resorufin. The fluorescence is measured in a reaction-dependent kinetic mode in order that fluorescent signals from possible other fluorescent substances which are not involved in the reaction can be corrected out.
1.5 μl of a standard solution or of the test substances (compounds of the invention) in individual concentrations dissolved in 20 mM Hepes pH 7.2 with a maximum of 7.7% of DMSO are pre-incubated together with 10 μl (16 ng) of highly purified recombinant autotaxin in a black microtitre plate provided with 384 wells at 22° C. for 30 min. The reaction is then initiated by addition of 5 μl of L-α-lysophosphatidylcholine (LPC), where the final concentration of LPC is 75 μM. The mixture is incubated at 37° C. for 90 min. After the incubation, Amplex Red reagent, peroxidase (horseradish peroxidase) and choline oxidase is added, and the fluorescence is immediately measured at 612 nm with excitation of 485 nm in a “Tecan Ultra multimode” reader. The activity of autotaxin is calculated indirectly via detection of the H2O2 formed.
• Microtitre plate: PS microplate, 384 wells, small volume, black Corning, Cat#3677 • Protein: recombinant autotaxin (Baculovirale Hi5 Expression) • Substrate: L-a-lysophosphatidylcholine (chicken egg)); Avanti Polar Lipids #830071 P • Standard: C14 LPA, Avanti Polar Lipids, Cat#857120P • Detection reagent: Amplex Red reagent; Invitrogen #A12222; dissolved in 1.923 ml of DMSO peroxidase type VI-A (horseradish) from Sigma #P6782; dissolved in 7.45 ml of test buffer, choline oxidase; Sigma #C5896; dissolved in 2.47 ml of test buffer • Detection reagent mix: 1:100 dilution of Amplex Red Reagenzt in test buffer • Test buffer: 200 mM Tris HCl, Merck, Cat #1.08219, pH 7.9, 0.1% BSA, lipid-free, Roche Cat#775835 Pharmacological Data Autotaxin Inhibition

Row | SMILES | IC50 | % (ctrl 3E−5M)
1 | COc1ccc(Cl)cc1NC(=O)CN1CCc2nc3ccccc3c(NC3CCN(C)CC3)c2C1 [Compound 1, N-(5-Chloro-2-methoxyphenyl)-2-[10-(1-methylpiperidin-4-ylamino)-3,4-dihydro-1H-benzo[b]-1,6-naphthyridin-2-yl]acetamide] | 0.1 to 1 µM | 
2 | COc1ccc(Cl)cc1NC(=O)CN1CCc2nc3ccccc3c(N)c2C1 [Compound 2, 2-(10-Amino-3,4-dihydro-1H-benzo[b]-1,6-naphthyridin-2-yl)-N-(5-chloro-2-methoxyphenyl)acetamide] | > 1 µM | 
3 | Nc1c2c(nc3ccccc13)CCN(CC(=O)Nc1cc(Cl)ccc1Cl)C2 [Compound 3, 2-(10-Amino-3,4-dihydro-1H-benzo[b]-1,6-naphthyridin-2-yl)-N-(2,5-dichlorophenyl)acetamide] |  | 79%
4 | COc1ccc(Cl)cc1NC(=O)CN1CCc2nc3ccccc3c(NCCO)c2C1 [Compound 4, N-(5-Chloro-2-methoxyphenyl)-2-[10-(2-hydroxy-ethylamino)-3,4-dihydro-1H-benzo[b]-1,6-naphthyridin-2-yl]acetamide] | 0.1 to 1 µM | 
5 | COc1ccc(Cl)cc1NC(=O)CN1CCc2nc3ccccc3c(NCCN(C)C)c2C1 [Compound 5, N-(5-Chloro-2-methoxyphenyl)-2-[10-(2-dimethylamino-ethylamino)-3,4-dihydro-1H-benzo[b]-1,6-naphthyridin-2-yl]acetamide] | 0.1 to 1 µM | 
6 | COc1ccc(Cl)cc1NC(=O)COC(=O)N1CCc2nc3ccccc3c(NCCN(C)C)c2C1 [Compound 6, 10-(2-Dimethylaminoethylamino)-3,4-dihydro-1H-benzo[b]-1,6-naphthyridine-2-carboxylic acid (5-chloro-2-methoxyphenylcarbamoyl)methyl ester] |  | −9%
7 | COc1ccc(Cl)cc1NC(=O)COC(=O)N1CCc2nc3ccccc3c(NCCO)c2C1 [Compound 7, 10-(2-Hydroxyethylamino)-3,4-dihydro-1H-benzo[b]-1,6-naphthyridine-2-carboxylic acid (5-chloro-2-methoxy-phenylcarbamoyl)methyl ester] | > 1 µM | 
8 | CNC(=O)CNc1c2c(nc3ccccc13)CCN(CC(=O)Nc1cc(Cl)ccc1OC)C2 [Compound 8, N-(5-Chloro-2-methoxyphenyl)-2-[10-(methyl-carbamoylmethylamino)-3,4-dihydro-1H-benzo[b]-1,6-naphthyridin-2-yl]acetamide] | 0.1 to 1 µM | 
9 | COc1ccc(Cl)cc1NC(=O)CN1CCc2nc3ccccc3c(NCC(=O)N(C)C)c2C1 [Compound 9, N-(5-Chloro-2-methoxyphenyl)-2-[10-(dimethyl-carbamoylmethylamino)-3,4-dihydro-1H-benzo[b]-1,6-naphthyridin-2-yl]acetamide] | 0.1 to 1 µM | 
10 | COc1ccc(Cl)cc1NC(=O)CN1CCc2nc3ccccc3c(N3CCN(CCO)CC3)c2C1 [Compound 10, N-(5-Chloro-2-methoxyphenyl)-2-{10-[4-(2-hydroxyethyl)-piperazin-1-yl]-3,4-dihydro-1H-benzo[b]-1,6-naphthyridin-2-yl}acetamide] | 0.1 to 1 µM | 
11 | COc1ccc(Cl)cc1NC(=O)CN1CCc2nc3ccccc3c(NCc3nc4ccccc4[nH]3)c2C1 [Compound 11, 2-{10-[(1H-Benzimidazol-2-ylmethyl)amino]-3,4-dihydro-1H-benzo[b]-1,6-naphthyridin-2-yl}-N-(5-chloro-2-methoxyphenyl)acetamide] | > 1 µM | 

Continued, values first:

Row | IC50 | % (ctrl 3E−5M) | SMILES
12 | 0.1 to 1 µM |  | COc1ccc(Cl)cc1NC(=O)CN1CCc2nc3ccccc3c(NCC(=O)N3CCCC3)c2C1 [Compound 12, N-(5-Chloro-2-methoxyphenyl)-2-[10-(2-oxo-2-pyrrolidin-1-ylethylamino)-3,4-dihydro-1H-benzo[b]-1,6-naphthyridin-2-yl]acetamide]
13 | 0.1 to 1 µM |  | COc1ccc(Cl)cc1NC(=O)CN1CCc2nc3ccccc3c(NCC(=O)N3CCCCC3)c2C1 [Compound 13, N-(5-Chloro-2-methoxyphenyl)-2-[10-(2-oxo-2-piperidin-1-ylethylamino)-3,4-dihydro-1H-benzo[b]-1,6-naphthyridin-2-yl]acetamide]
14 | 0.1 to 1 µM |  | COc1ccc(Cl)cc1NC(=O)CN1CCc2nc3ccccc3c(NCC(=O)N3CCOCC3)c2C1 [Compound 14, N-(5-Chloro-2-methoxyphenyl)-2-[10-(2-morpholin-4-yl-2-oxoethylamino)-3,4-dihydro-1H-benzo[b]-1,6-naphthyridin-2-yl]acetamide]
15 | > 1 µM |  | COc1ccc(Cl)cc1NC(=O)CN1CCc2nc3ccccc3c(NCC(=O)NC3CCCCC3)c2C1 [Compound 15, N-(5-Chloro-2-methoxyphenyl)-2-[10-(cyclohexyl-carbamoylmethylamino)-3,4-dihydro-1H-benzo[b]-1,6-naphthyridin-2-yl]acetamide]
16 | 0.1 to 1 µM |  | COc1ccc(Cl)cc1NC(=O)CN1CCc2nc3ccccc3c(NCC(=O)N3CCN(C)CC3)c2C1 [Compound 16, N-(5-Chloro-2-methoxyphenyl)-2-{10-[2-(4-methyl-piperazin-1-yl)-2-oxoethylamino]-3,4-dihydro-1H-benzo-[b]-1,6-naphthyridin-2-yl}acetamide]
17 | 0.1 to 1 µM |  | COc1ccc(Cl)cc1NC(=O)CN1CCc2nc3ccccc3c(NCC(=O)N3CCN(C(C)C)CC3)c2C1 [Compound 17, N-(5-Chloro-2-methoxyphenyl)-2-{10-[2-(4-isopropyl-piperazin-1-yl)-2-oxoethylamino]-3,4-dihydro-1H-benzo-[b]-1,6-naphthyridin-2-yl}acetamide]
18 | 0.1 to 1 µM |  | CCN(CC)C(=O)CNc1c2c(nc3ccccc13)CCN(CC(=O)Nc1cc(Cl)ccc1OC)C2 [Compound 18, N-(5-Chloro-2-methoxyphenyl)-2-[10-(diethyl-carbamoylmethylamino)-3,4-dihydro-1H-benzo[b]-1,6-naphthyridin-2-yl]acetamide]
19 | 0.1 to 1 µM |  | COc1ccc(Cl)cc1NC(=O)CN1CCc2nc3ccccc3c(NCC(=O)N3CCN(Cc4ccccc4)CC3)c2C1 [Compound 19, 2-{10-[2-(4-Benzylpiperazin-1-yl)-2-oxoethylamino]-3,4-dihydro-1H-benzo[b]-1,6-naphthyridin-2-yl}-N-(5-chloro-2-methoxyphenyl)acetamide]
20 | > 1 µM |  | COc1ccc(Cl)cc1NC(=O)CN1CCc2nc3ccccc3c(Nc3ccncc3)c2C1 [Compound 20, N-(5-Chloro-2-methoxyphenyl)-2-[10-(pyridin-4-ylamino)-3,4-dihydro-1H-benzo[b]-1,6-naphthyridin-2-yl]acetamide]
21 | > 1 µM |  | COc1ccc(Cl)cc1NC(=O)CN1CCc2nc3ccccc3c(Nc3cccnc3)c2C1 [Compound 21, N-(5-Chloro-2-methoxyphenyl)-2-[10-(pyridin-3-ylamino)-3,4-dihydro-1H-benzo[b]-1,6-naphthyridin-2-yl]acetamide]
22 | > 1 µM |  | COc1ccc(Cl)cc1NC(=O)CN1CCc2nc3ccccc3c(Nc3ccccc3)c2C1 [Compound 22, N-(5-Chloro-2-methoxyphenyl)-2-(10-phenylamino-3,4-dihydro-1H-benzo[b]-1,6-naphthyridin-2-yl)acetamide]
23 | > 1 µM |  | COc1ccc(Cl)cc1NC(=O)CN1CCc2nc3ccccc3c(Nc3ccccn3)c2C1 [Compound 23, N-(5-Chloro-2-methoxyphenyl)-2-[10-(pyridin-2-ylamino)-3,4-dihydro-1H-benzo[b]-1,6-naphthyridin-2-yl]acetamide]
24 | > 1 µM |  | COc1ccc(Nc2c3c(nc4ccccc24)CCN(CC(=O)Nc2cc(Cl)ccc2OC)C3)cc1 [Compound 24, N-(5-Chloro-2-methoxyphenyl)-2-[10-(4-methoxy-phenylamino)-3,4-dihydro-1H-benzo[b]-1,6-naphthyridin-2-yl]acetamide]
